Laboratory results as given in the NIST ThermoML archive (doi:10.1021/je101012n).

Experiment: mn = molality of the nth substance listed, in mol/kg
Settings: 101 kPa, Liquid, Alternating current cell with electrodes

O=[N+]([O-])[O-].O=[N+]([O-])[O-].[Cu+2] [copper dinitrate] + O
electrical conductivity [S/m]
Settings | 278.1 K | 283.1 K | 298.15 K | 308.15 K | 318.15 K | 343.15 K | 363.15 K
m1 = 0.0001 | 0.01101 | 0.01227 | – | – | – | 0.02684 | 0.0318
m1 = 0.0011 | 0.02486 | 0.02823 | 0.0388 | 0.04633 | 0.05303 | 0.07303 | 0.08992
m1 = 0.01032 | 0.1433 | 0.1641 | 0.2308 | 0.2795 | 0.3256 | 0.4628 | 0.5792
m1 = 0.1108 | 1.207 | 1.382 | 1.935 | 2.333 | 2.746 | 3.918 | 4.838
m1 = 0.3459 | 3.219 | 3.68 | 5.093 | 6.092 | 7.235 | 10.34 | 12.57

[Br-].[K+] [potassium bromide] + O
electrical conductivity [S/m]
Settings | 278.15 K | 283.15 K | 298.15 K | 308.15 K | 318.15 K | 343.15 K | 363.15 K
m1 = 9.9e-05 | 0.0009344 | 0.001066 | 0.001469 | 0.00175 | 0.002072 | 0.002896 | 0.003522
m1 = 0.000975 | 0.009114 | 0.01037 | 0.01441 | 0.01716 | 0.02007 | 0.02802 | 0.0343
m1 = 0.00987 | 0.08994 | 0.1022 | 0.1417 | 0.1689 | 0.1974 | 0.2761 | 0.3376
m1 = 0.09755 | 0.8252 | 0.9355 | 1.29 | 1.535 | 1.787 | 2.491 | 2.952
m1 = 1.21 | 8.409 | 9.363 | 12.45 | 14.54 | 16.72 | 22.46 | 26.28

O=[N+]([O-])[O-].O=[N+]([O-])[O-].[Zn+2] [nitric acid, zinc salt] + O
electrical conductivity [S/m]
Settings | 278.15 K | 283.15 K | 298.15 K | 308.15 K | 318.15 K | 343.15 K | 363.15 K
m1 = 8.7e-05 | 0.001368 | 0.001579 | 0.002248 | 0.002744 | 0.003188 | 0.004549 | 0.00575
m1 = 0.00127 | 0.01814 | 0.02081 | 0.02942 | 0.03606 | 0.04205 | 0.06014 | 0.07615
m1 = 0.00874 | 0.1162 | 0.1334 | 0.1891 | 0.2299 | 0.2687 | 0.383 | 0.4824
m1 = 0.1275 | 1.391 | 1.592 | 2.217 | 2.658 | 3.118 | 4.402 | 5.442
m1 = 0.3325 | 3.111 | 3.653 | 4.931 | 5.906 | 6.986 | 9.937 | 11.83

O=C([O-])O.[Na+] [sodium bicarbonate] + O
electrical conductivity [S/m]
Settings | 278.15 K | 283.15 K | 298.15 K | 308.15 K | 318.15 K | 343.15 K | 363.15 K
m1 = 0.00121 | 0.006911 | 0.008034 | 0.01162 | 0.01437 | 0.01703 | 0.02506 | 0.03284
m1 = 0.01187 | 0.06467 | 0.07485 | 0.1086 | 0.1346 | 0.1589 | 0.234 | 0.3056
m1 = 0.1223 | 0.5728 | 0.6641 | 0.9598 | 1.177 | 1.395 | 2.044 | 2.457
m1 = 0.7226 | 2.634 | 3.055 | 4.383 | 5.346 | 6.41 | 9.404 | 11.39
